Legend:
[1] = tested on: HIV; conditions: MT4 lymphocytes; cited from earlier work
[2] = tested on: Moloney murine sarcoma virus (MSV); experiment: Inhibition of transformation of C3H cells by MSV; type: cell-based
Protocol: Moloney murine sarcoma virus (MSV) was prepared from tumors induced by in vivo infection of 10 day-old NMRI mice according to the procedure described by De Clercq et al (Proc. Soc. Exp. Biol. Med. 137, 590-594 (1971)).
ddUrd and the substituted pymiridine 2′,3′-dideoxynucleoside analogues were examined for their inhibitory effect on the transformation of mouse embryo C3H fibroblasts by Moloney murine sarcoma virus (MSV).
C3H cells were seeded at 20,000 cells per ml into wells of Costar Tissue Culture Cluster plates (48 wells per plate) and grown to confluency. Cell cultures were then infected by 150 foci-forming units of MSV during 90 min, whereafter the culture medium was replaced by 1 ml fresh medium containing different concentrations of the test compound. After 6 days, the transformation of the cell cultures was examined microscopically.

[3] = tested on: C3H cells; experiment: Cytotoxicity for C3H cells (alteration of normal cell morphology); type: cell-based, mouse; conditions: alteration of normal cell morphology, C3H cells
[4] = molecular target: T1, Molt/4F dCyd kinase (Homo sapiens, UniProt P27707); experiment: Inhibition of dCyd kinase (Lineweaver-Burk); type: biochemical
T1 construct: endogenous in cells; host or cells: Molt/4F cells (sonicated extract, 30-70% ammonium sulfate fraction, dialyzed)
T1 sequence (P27707 whole entry): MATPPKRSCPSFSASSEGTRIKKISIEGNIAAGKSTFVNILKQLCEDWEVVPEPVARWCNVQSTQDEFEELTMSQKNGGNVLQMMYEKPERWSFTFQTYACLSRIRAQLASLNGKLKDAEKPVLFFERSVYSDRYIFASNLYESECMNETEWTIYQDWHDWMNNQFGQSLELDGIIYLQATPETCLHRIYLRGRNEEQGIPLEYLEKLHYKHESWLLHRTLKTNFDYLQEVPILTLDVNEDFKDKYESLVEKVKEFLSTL
Protocol: ddUrd and the 3′-fluoro- and 3′-azido-substituted pyrimidine 2′,3′-dideoxynucleoside analogues were evaluated for their inhibitory effect against dThd and dCyd kinase.
dThd kinase and dCyd kinase were prepared from exponen tially growing Molt/4F cells, which were first washed (2x) with phosphate-buffered saline at 4° and then homogenized by sonication. The suspensions were clarified by centrifugation at 25,000-27,000 x g for 30 min. The 30-70% (NH₄)₂SO₄ precipitate of the supernatant was resuspended in buffer containing 10 uM potassium phosphate, pH 7.5, 10 mM β-mercaptoethanol and 0.1 M KCl, dialyzed against the same buffer, and used for the dThd kinase and the dCyd kinase assays. In these experiments, (2-¹⁴C)dThd and (U-¹⁴C)dCyd served as the radiolabelled substrates. The apparent Km and Ki values were derived from Lineweaver-Burk plots, using a linear regression analysis program. The assay procedures have been described in detail (J. Balzarini et al, (1983) and J. Balzarini et al, Biochem. Pharmacol. 31, 3673-3682 (1982)).

[5] = molecular target: T2, bacterial thymidine phosphorylase (Escherichia coli, UniProt P07650); experiment: Phosphorolytic cleavage by dThd phosphorylase; type: biochemical; conditions: for Initial velocity of phosphorolysis: 25°C, 0.1 M sodium phosphate buffer, pH 7.0, N.D. = not detectable with 25 units of enzyme
T2 construct: purchased Sigma Chemical Co., St. Louis, MO
T2 sequence (P07650 whole entry): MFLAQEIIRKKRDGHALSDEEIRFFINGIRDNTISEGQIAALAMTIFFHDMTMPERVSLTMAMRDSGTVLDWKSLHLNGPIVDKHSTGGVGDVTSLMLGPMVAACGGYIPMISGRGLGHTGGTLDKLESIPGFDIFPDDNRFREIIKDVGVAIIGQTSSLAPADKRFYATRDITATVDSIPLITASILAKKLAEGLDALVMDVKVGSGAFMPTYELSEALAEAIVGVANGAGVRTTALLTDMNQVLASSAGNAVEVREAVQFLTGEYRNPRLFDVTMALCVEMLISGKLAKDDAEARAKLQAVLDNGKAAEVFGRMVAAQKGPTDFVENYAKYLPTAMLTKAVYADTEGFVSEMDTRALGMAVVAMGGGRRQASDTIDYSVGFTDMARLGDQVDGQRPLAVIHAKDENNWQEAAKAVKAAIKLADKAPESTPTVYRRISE
Protocol: Phosphorolytic cleavage of the test compounds was assessed using purified bacterial dThd phosphorylase (Sigma Chemical Co., St. Louis, MO) with the aid of a Beckman spectrophotometer UV/Vis 5200; the absorbance change during the enzyme reaction was continuously monitored at 25°C at the wavelength where the difference of absorption between the nucleoside and its free base was maximal. The reaction mixtures for all the assays consisted of enzyme and non-satura ting concentrations of nucleoside in 0.1 M sodium phosphate buffer, pH 7.0. The initial velocity of phosphorolysis was expressed as nmol/min/enzyme unit.

[6] = tested on: HIV; conditions: ATH8 T-lymphocyte cell line; cited from earlier work

Q: With Cc1cn([C@H]2C=C[C@@H](CO)O2)c(=O)[nH]c1=O [2′,3′-didehydro-2′,3′-dideoxythymidine] as the compound, how does the “concentration that protects MT4 cells against HIV” value [1] read?
A: 0,04 µM

Q: With Cc1cn([C@H]2CC[C@@H](CO)O2)c(=O)[nH]c1=O [2′,3′-dideoxythymidine] as the compound, how does the “concentration that protects MT4 cells against HIV” value [1] read?
A: 1 µM

Q: With [N-]=[N+]=N[C@H]1C[C@H](n2ccc(N)nc2=O)O[C@@H]1CO [AzddCyd, 3′-Azido-2′,3′-dideoxycytidine] as the compound, how does the EC50 ([2]; Moloney murine sarcoma virus, 144 h, 50% reduction of transformation of C3H cells by MSV, 6 days, read-out: MSV-induced cyto-pathogenicity ED50) read?
A: 70 µM

Q: And the “MSV-induced cyto-pathogenicity S.I.” value ([2]; Selectivity index or ratio of CD50 to ED50, C3H cells)?
A: > 5.7

Q: What about the “MSV-induced cyto-pathogenicity CD50” value [3] of the same compound?
A: >400 µM

Q: And the Ki/Km ([4]; Km 5.2 to 6.4 µM)?
A: 58

Q: And the Ki ([4]; substrate (U-14C)dCyd)?
A: 354 µM

Q: What about the Type of inhibition ([4]; with respect to dCyd) of the same compound?
A: competitive

Q: What about the “susceptibility to phosphorolysis by dThd phosphorylase (in words)” value ([5]; purified bacterial dThd phosphorylase) of the same compound?
A: totally resistant

Q: What about the “anti-retroviral effect compared with ddCyd” value [6] of the same compound?
A: much less effective than ddCyd

Q: With Cc1cn([C@H]2C[C@H](N=[N+]=[N-])[C@@H](CO)O2)c(=O)[nH]c1=O [AzddThd, 3′-azido-2′,3′-dideoxythymidine] as the compound, how does the “concentration that protects MT4 cells against HIV” value [1] read?
A: 0.02 µM

Q: With CCc1cn([C@H]2C[C@H](O)[C@@H](CO)O2)c(=O)[nH]c1=O [dEtUrd] as the compound, how does the “Initial velocity of phosphorolysis” value [5] read?
A: 0.893 nmol/min/unit

Q: Which “Initial velocity of phosphorolysis” value [5] does the source give for O=c1ccn([C@H]2C[C@H](O)[C@@H](CO)O2)c(=O)[nH]1 [dUrd] here?
A: 361 nmol/min/unit

Source: EP0316592A2, “3'-Fluoro-2',3'-dideoxyuridine, and its therapeutic application” (Stichting REGA V.Z.W., priority 1987, dated 1989)
